Test results taken from US20020111274A1, “1-alkyl-3-[1-(substituted phenyl) benzotriazol-6-yl] uracils” (BASF Aktiengesellschaft, priority 2000, published 2002).

Legend:
Set-up in all cases: scale not given here
Conditions in all cases: postemergence spray, rated about two-three weeks after treatment
[1] = system: ORYSAT Rice, Tebonnet; test: Postemergence herbicidal evaluation, ORYSAT; assay type: in vivo, Oryza sativa, (L.)
Procedure, shortened: (§1)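 Postemergence spray, 40 psi nozzle, on ~2-week seedlings. Carrier: acetone/water 80/20, 1.0% methylated seed oil; dose ~0.006–0.400 kg/ha. Scored visually at 2–3 weeks.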

[2] = system: ECHOG Barnyardgrass; test: Postemergence herbicidal evaluation, ECHOG; assay type: in vivo, Echinochloa crus-galli, (L.) Beau
Procedure, shortened: as §1

[3] = system: ABUTH Velvetleaf; test: Postemergence herbicidal evaluation, ABUTH; assay type: in vivo, Abutilon theophrasti, Medic.
Procedure, shortened: as §1

[4] = system: CASOB Sicklepod; test: Postemergence herbicidal evaluation, CASOB; assay type: in vivo, Cassia obtusifolia, L.
Procedure, shortened: as §1

[5] = system: CHEAL Lambsquarters, Common; test: Postemergence herbicidal evaluation, CHEAL; assay type: in vivo, Chenopodium album, L.
Procedure, shortened: as §1

[6] = system: GALAP Galium; test: Postemergence herbicidal evaluation, GALAP; assay type: in vivo, Galium aparine
Procedure, shortened: as §1

**Q.** What does the source list for Cc1ccc(O)c(-n2nnc3cc(F)c(-n4c(=O)cc(C(F)(F)F)n(C)c4=O)cc32)c1 [Example 31, 3-[5-Fluoro-1-(2-Hydroxy-5-Methylphenyl)-1H-1,2,3-Benzotriazol-6-yl]-1-Methyl-6-(Trifluoromethyl)-2,4(1H,3H)-(Pyrimidinedione)]?
**A.** Postemergence herbicidal rating ORYSAT ([1]; 0.008 kg/ha): 1.0; Postemergence herbicidal rating ORYSAT ([1]; 0.016 kg/ha): 1.0; Postemergence herbicidal rating ORYSAT ([1]; 0.032 kg/ha): 1.5; Postemergence herbicidal rating ORYSAT ([1]; 0.062 kg/ha): 1.5; Postemergence herbicidal rating ECHCG ([2]; 0.008 kg/ha): 0.0; Postemergence herbicidal rating ECHCG ([2]; 0.016 kg/ha): 0.0; Postemergence herbicidal rating ECHCG ([2]; 0.032 kg/ha): 0.0; Postemergence herbicidal rating ECHCG ([2]; 0.062 kg/ha): 3.0; Postemergence herbicidal rating ABUTH ([3]; 0.008 kg/ha): 0.0; Postemergence herbicidal rating ABUTH ([3]; 0.016 kg/ha): 0.0; Postemergence herbicidal rating ABUTH ([3]; 0.032 kg/ha): 2.0; Postemergence herbicidal rating ABUTH ([3]; 0.062 kg/ha): 4.0; Postemergence herbicidal rating CASOB ([4]; 0.008 kg/ha): 0.0; Postemergence herbicidal rating CASOB ([4]; 0.016 kg/ha): 0.0; Postemergence herbicidal rating CASOB ([4]; 0.032 kg/ha): 0.0; Postemergence herbicidal rating CASOB ([4]; 0.062 kg/ha): 0.0; Postemergence herbicidal rating CHEAL ([5]; 0.008 kg/ha): 0.0; Postemergence herbicidal rating CHEAL ([5]; 0.016 kg/ha): 0.0; Postemergence herbicidal rating CHEAL ([5]; 0.032 kg/ha): 0.0; Postemergence herbicidal rating CHEAL ([5]; 0.062 kg/ha): 0.0; Postemergence herbicidal rating GALAP ([6]; 0.008 kg/ha): 0.0; Postemergence herbicidal rating GALAP ([6]; 0.016 kg/ha): 0.0; Postemergence herbicidal rating GALAP ([6]; 0.032 kg/ha): 0.0; Postemergence herbicidal rating GALAP ([6]; 0.062 kg/ha): 0.0
